Reference: ChEMBL document CHEMBL1201862, “PubChem BioAssay data set” (2004)
The source made the active and inactive calls.

Key:
Protein Wnt-3a = Protein Wnt-3a (Mus musculus, UniProt P27467); test: antagonism of Wnt3a pathway luciferase reporter – Wnt-LIGHT cells, luminescence, selectivity assay for Gli-SUFU antagonist project, dose response (AID 651570); type: functional; conditions: read-out: IC50_Mean;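 also: Wnt-LIGHT reporter cells stimulated with conditioned medium from Wnt3a-producing cells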
[1] = molecular target: T1, Corticotropin-releasing factor receptor 2/Corticotropin-releasing factor-binding protein (Homo sapiens, UniProt P24387+Q13324); test: activators of CRF receptor 2 with binding protein – uHTS hits, confirmation (AID 602473); type: functional; conditions: read-out: EC50_Mean
T1 sequence (Q13324 whole entry): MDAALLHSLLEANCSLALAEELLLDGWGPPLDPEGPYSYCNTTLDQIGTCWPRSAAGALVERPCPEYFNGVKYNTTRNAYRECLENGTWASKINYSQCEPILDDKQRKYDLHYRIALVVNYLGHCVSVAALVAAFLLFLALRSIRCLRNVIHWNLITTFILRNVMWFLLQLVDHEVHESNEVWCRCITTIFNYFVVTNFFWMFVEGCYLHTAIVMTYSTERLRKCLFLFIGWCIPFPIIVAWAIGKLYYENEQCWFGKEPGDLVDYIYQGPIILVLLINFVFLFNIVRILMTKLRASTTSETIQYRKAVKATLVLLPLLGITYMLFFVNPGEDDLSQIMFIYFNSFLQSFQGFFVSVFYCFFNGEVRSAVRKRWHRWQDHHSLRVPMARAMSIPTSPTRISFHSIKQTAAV
T1 sequence (P24387 whole entry): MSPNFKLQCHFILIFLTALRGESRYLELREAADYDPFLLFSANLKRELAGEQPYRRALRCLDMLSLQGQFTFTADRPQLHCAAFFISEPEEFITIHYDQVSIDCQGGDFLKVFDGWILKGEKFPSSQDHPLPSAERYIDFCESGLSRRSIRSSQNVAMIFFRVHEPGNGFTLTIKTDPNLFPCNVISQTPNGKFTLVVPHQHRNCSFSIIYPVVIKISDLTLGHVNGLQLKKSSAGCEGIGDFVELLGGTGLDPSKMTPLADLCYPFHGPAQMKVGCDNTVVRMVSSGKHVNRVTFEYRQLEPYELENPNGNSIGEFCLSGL

[2] = molecular target: T2, Adenosylmethionine-8-amino-7-oxononanoate aminotransferase (Mycobacterium tuberculosis, UniProt P9WQ81); test: Mycobacterium tuberculosis BioA enzyme inhibitor Measured in Biochemical System Using Plate Reader - 2163-02_Inhibitor_Dose_CherryPick_Activity.; type: functional, Mycobacterium tuberculosis UT205
T2 sequence (P9WQ81 whole entry): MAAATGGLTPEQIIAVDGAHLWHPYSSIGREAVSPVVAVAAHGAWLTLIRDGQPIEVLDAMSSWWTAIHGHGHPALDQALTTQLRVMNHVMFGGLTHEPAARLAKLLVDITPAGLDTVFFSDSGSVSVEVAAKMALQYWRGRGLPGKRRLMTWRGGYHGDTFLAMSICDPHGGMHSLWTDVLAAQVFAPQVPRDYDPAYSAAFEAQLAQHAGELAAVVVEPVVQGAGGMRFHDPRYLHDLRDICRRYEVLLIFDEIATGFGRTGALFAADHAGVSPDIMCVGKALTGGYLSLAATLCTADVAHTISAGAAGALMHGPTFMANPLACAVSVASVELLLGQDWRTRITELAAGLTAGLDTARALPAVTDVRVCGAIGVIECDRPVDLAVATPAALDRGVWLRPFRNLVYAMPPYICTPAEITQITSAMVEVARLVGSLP

[3] = reduction of Shn3 3'UTR-driven luciferase in osteoblasts – cell-based, Clone20 osteoblasts, firefly luciferase, cherry-picked, dose response (AID 624132); type: functional;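 also: firefly luciferase luminescence from reporter carrying the Shn3 3'UTR in osteoblasts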
[4] = non-specific 3'UTR reporter inhibition in Clone20-Shn3RL – cell-based, Renilla luciferase, cherry-picked, counter-screen for Shn3 inhibitor project, dose response (AID 624133); type: functional
[5] = fluconazole-exposed Candida albicans growth modulators – fluorescence, retest, confirmation (AID 2467); type: functional, cell-based
[6] = NIH-3T3 fibroblast cytotoxicity, dose response, cytotoxicity control, cell-based, fluorescence, Alamar Blue, secondary assay (AID 2327); type: functional;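 also: NIH-3T3 mouse fibroblasts cultured with fluconazole at 8 µg/mL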
SN12K1 = test: cells; type: functional; conditions: Homo sapiens
[7] = molecular target: T3, Type-1 angiotensin II receptor (Homo sapiens, UniProt P30556); test: antagonism of angiotensin II type 1 receptor – cell-based, uHTS hits, selectivity assay for APJ receptor antagonist project, dose response (AID 463214); type: functional;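 also: antagonist potency against angiotensin II stimulated AT1 response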
T3 sequence (P30556 whole entry): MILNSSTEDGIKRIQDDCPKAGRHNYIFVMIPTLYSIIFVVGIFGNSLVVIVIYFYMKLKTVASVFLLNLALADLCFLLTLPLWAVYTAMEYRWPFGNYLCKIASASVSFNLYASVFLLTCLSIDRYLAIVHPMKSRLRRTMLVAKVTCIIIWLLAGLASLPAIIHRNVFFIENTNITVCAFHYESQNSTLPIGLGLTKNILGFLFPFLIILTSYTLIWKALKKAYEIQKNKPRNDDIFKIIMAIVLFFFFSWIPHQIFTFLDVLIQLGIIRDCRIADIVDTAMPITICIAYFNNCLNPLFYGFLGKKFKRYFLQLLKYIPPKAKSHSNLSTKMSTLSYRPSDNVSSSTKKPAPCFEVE

Beta-galactosidase = Beta-galactosidase (Escherichia coli, UniProt Q8VNN2); test: PubChem AID 485352; type: functional
Vero = test: cells; type: functional; conditions: Chlorocebus sabaeus
[8] = molecular target: G-protein coupled receptor 55 (Homo sapiens, UniProt Q9Y2T6); test: selective activators of receptor GPR55 – imaging, U2OS cells, beta-arrestin-GFP redistribution, primary screen (AID 1961); type: functional
INS1 = test: INS-1E survival protection against cytokine death – cell-based, luminescence, retest, dose response (AID 449756); type: functional; conditions: Rattus norvegicus;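 also: cell death triggered by IL-1 beta plus TNF-alpha plus IFN-gamma mixture; protective hits raise ATP signal compared with cytokine alone wells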
HEK293 [9] = test: cells; type: functional, cell-based; conditions: Homo sapiens
HEK293 [10] = test: inhibition of NOD1-driven NF-kB reporter – cell-based, luminescence, uHTS, primary screen (AID 1578); type: functional; conditions: Homo sapiens
HEK293 [11] = test: cells; type: functional, cell-based; conditions: Homo sapiens; remark: listed apart in the source
HEK293 [12] = test: NOD2 signaling inhibitors in MDP-stimulated cells, cell-based, uHTS, luminescence (AID 2001); type: functional; conditions: Homo sapiens
Cytochrome P450 2C9 = Cytochrome P450 2C9 (Homo sapiens, UniProt P11712)
[13] = viability of HCT116 lacking mutant beta-catenin – cell-based, human colon tumor, dose response (AID 1045); type: functional;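 also: HCT116 colon tumor cells with beta catenin knocked out; cells exposed to compound for 60 hours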
[14] = microbe, parasite or virus in culture; type: functional; conditions: Mycobacterium tuberculosis
[15] = viability of PTEN-deleted HCT116 cells – cell-based, HCT116 PTEN knockout, dose response (AID 1047); type: functional;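 also: HCT116 colon tumor cells with PTEN knocked out; cells exposed to compound for 60 hours before readout; potency for loss of cell viability measured by luminescence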
[16] = molecular target: Peroxisome proliferator-activated receptor gamma/Nuclear receptor coactivator 2 (Homo sapiens, UniProt P37231); test: TR-FRET dose response biochemical High Throughput Screening assay for agonists of the steroid receptor coactivator 2 (SRC-2) recruitment by the peroxisome proliferator-activated receptor gamma (PPAR gamma): non-selective agonists. [Related pubchem assays: 1297, 1032 ]; type: functional
[17] = molecular target: Peroxisome proliferator-activated receptor gamma/Nuclear receptor coactivator 3 (Homo sapiens, UniProt P37231); test: TR-FRET dose response biochemical High Throughput Screening assay for agonists of the steroid receptor coactivator 3 (SRC-3) recruitment by the peroxisome proliferator-activated receptor gamma (PPAR gamma): non-selective agonists. [Related pubchem assays: 1301 (Confirmation screen.), 1048 (Primary screen.)]; type: functional
[18] = molecular target: Peroxisome proliferator-activated receptor gamma/Nuclear receptor coactivator 1 (Homo sapiens, UniProt P37231); test: TR-FRET dose response biochemical High Throughput Screening assay for agonists of the steroid receptor coactivator 1 (SRC-1) recruitment by the peroxisome proliferator-activated receptor gamma (PPAR gamma): non-selective agonists. [Related pubchem assays (depositor defined):AID1300, AID1808, AID504735, AID631]; type: protein assay
[19] = molecular target: 26S proteasome non-ATPase regulatory subunit 14 (Homo sapiens, UniProt O00487); test: inhibition of proteasome subunit RPN11 – biochemical, fluorescence polarization, uHTS hits, confirmation (AID 602368); type: functional
Prothrombin = Prothrombin (Bos taurus, UniProt P00735); test: thrombin protease inhibitors – biochemical, fluorescence polarization, uHTS hits, dose response (AID 602369); type: functional
[20] = molecular target: 72 kDa type IV collagenase (Homo sapiens, UniProt P08253); test: Dose Response validation of uHTS RPN11 inhibitor hits using a MMP-2 Fluorescence assay.; type: functional
[21] = molecular target: Heat shock protein HSP 90-alpha (Homo sapiens, UniProt P07900); type: functional, organism-based
[22] = DRD fibroblast viability loss – cell-based, non-viral oncogenic, luminescence, dose response (AID 1934); type: functional; conditions: Homo sapiens
BJ [23] = test: growth inhibition of engineered Ras-driven BJ cells – cell-based, alamar blue fluorescence, cherrypicked samples, dose response (AID 2631); type: functional; conditions: Homo sapiens;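 also: confirmatory dose-response assay in RAS-dependent BJ fibroblasts engineered with TERT, LT and ST, with cytotoxicity read by fluorescence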
BJ [24] = test: cells; type: functional, cell-based; conditions: Homo sapiens
BJ [25] = test: BJ-TERT fibroblast viability loss – cell-based, RAS-independent, luminescence, dose response (AID 1933); type: functional; conditions: Homo sapiens
BJ [26] = test: BJ-TERT-LT-ST fibroblast viability loss – cell-based, RAS-independent, luminescence, dose response (AID 1935); type: functional; conditions: Homo sapiens;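 also: BJ fibroblasts immortalized with TERT plus LT and ST oncogenes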

Sequence of Protein Wnt-3a (P27467 whole entry): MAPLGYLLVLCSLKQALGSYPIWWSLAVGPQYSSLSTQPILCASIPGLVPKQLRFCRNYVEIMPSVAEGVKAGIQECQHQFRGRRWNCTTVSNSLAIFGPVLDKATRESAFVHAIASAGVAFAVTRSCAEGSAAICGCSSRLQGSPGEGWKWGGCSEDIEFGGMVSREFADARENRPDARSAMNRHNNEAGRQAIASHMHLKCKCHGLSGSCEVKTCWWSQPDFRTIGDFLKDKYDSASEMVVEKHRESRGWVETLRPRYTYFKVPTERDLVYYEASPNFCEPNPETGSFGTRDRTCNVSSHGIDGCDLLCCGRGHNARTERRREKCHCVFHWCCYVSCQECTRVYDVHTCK
Sequence of Peroxisome proliferator-activated receptor gamma/Nuclear receptor coactivator 3 (P37231 whole entry): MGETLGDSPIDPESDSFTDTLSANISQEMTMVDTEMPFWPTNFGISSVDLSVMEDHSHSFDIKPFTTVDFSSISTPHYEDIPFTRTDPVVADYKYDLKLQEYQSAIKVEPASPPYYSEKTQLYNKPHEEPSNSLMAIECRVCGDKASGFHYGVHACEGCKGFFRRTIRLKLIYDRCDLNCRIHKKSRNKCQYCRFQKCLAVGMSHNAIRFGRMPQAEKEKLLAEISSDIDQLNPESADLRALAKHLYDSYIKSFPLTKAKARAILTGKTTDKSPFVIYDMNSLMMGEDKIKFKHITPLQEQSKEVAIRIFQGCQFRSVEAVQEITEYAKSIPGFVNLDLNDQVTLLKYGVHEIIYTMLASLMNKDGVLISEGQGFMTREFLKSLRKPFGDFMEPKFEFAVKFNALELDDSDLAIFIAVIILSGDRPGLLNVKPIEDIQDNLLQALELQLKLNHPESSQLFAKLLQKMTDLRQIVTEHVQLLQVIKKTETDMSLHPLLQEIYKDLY
Sequence of Peroxisome proliferator-activated receptor gamma/Nuclear receptor coactivator 3 (Q9Y6Q9 whole entry, further chain): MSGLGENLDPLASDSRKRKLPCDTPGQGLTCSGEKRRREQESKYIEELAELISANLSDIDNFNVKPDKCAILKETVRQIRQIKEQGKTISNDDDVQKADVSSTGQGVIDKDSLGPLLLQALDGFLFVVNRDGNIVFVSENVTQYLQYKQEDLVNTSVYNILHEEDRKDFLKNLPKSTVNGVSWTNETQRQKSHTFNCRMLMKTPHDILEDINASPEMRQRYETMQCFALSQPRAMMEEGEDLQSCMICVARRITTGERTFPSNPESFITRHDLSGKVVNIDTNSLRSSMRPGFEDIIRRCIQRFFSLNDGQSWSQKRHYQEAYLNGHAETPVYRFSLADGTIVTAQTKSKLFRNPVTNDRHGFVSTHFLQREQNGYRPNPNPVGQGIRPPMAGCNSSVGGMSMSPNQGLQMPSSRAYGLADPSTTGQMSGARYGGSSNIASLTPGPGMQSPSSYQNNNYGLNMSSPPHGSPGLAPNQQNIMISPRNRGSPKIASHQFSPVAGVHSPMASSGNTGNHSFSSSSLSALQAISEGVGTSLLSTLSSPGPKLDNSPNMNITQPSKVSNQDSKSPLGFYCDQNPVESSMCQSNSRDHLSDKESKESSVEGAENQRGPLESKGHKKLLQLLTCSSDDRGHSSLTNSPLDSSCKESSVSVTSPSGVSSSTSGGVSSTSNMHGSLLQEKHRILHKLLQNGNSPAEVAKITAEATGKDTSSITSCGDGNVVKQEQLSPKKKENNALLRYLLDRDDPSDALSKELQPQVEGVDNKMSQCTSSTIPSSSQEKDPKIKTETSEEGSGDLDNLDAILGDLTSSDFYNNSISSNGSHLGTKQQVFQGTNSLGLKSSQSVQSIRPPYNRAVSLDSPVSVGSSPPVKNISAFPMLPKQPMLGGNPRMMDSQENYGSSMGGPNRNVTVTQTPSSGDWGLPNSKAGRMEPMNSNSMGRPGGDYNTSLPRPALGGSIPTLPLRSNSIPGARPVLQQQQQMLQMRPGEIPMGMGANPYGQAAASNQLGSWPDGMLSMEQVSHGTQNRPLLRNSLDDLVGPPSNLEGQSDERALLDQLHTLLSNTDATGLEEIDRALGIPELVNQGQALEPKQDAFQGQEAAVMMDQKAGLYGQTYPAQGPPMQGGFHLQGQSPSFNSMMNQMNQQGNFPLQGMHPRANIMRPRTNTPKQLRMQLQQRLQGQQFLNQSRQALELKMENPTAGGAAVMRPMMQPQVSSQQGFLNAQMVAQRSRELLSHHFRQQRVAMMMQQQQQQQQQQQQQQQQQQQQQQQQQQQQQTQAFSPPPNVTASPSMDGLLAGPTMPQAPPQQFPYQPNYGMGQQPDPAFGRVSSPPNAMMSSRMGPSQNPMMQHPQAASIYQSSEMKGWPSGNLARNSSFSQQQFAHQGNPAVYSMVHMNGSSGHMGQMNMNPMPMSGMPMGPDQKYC
Sequence of Peroxisome proliferator-activated receptor gamma/Nuclear receptor coactivator 1 (P37231 whole entry): as the sequence (P37231 whole entry) above
Sequence of Peroxisome proliferator-activated receptor gamma/Nuclear receptor coactivator 1 (Q15788 whole entry, further chain): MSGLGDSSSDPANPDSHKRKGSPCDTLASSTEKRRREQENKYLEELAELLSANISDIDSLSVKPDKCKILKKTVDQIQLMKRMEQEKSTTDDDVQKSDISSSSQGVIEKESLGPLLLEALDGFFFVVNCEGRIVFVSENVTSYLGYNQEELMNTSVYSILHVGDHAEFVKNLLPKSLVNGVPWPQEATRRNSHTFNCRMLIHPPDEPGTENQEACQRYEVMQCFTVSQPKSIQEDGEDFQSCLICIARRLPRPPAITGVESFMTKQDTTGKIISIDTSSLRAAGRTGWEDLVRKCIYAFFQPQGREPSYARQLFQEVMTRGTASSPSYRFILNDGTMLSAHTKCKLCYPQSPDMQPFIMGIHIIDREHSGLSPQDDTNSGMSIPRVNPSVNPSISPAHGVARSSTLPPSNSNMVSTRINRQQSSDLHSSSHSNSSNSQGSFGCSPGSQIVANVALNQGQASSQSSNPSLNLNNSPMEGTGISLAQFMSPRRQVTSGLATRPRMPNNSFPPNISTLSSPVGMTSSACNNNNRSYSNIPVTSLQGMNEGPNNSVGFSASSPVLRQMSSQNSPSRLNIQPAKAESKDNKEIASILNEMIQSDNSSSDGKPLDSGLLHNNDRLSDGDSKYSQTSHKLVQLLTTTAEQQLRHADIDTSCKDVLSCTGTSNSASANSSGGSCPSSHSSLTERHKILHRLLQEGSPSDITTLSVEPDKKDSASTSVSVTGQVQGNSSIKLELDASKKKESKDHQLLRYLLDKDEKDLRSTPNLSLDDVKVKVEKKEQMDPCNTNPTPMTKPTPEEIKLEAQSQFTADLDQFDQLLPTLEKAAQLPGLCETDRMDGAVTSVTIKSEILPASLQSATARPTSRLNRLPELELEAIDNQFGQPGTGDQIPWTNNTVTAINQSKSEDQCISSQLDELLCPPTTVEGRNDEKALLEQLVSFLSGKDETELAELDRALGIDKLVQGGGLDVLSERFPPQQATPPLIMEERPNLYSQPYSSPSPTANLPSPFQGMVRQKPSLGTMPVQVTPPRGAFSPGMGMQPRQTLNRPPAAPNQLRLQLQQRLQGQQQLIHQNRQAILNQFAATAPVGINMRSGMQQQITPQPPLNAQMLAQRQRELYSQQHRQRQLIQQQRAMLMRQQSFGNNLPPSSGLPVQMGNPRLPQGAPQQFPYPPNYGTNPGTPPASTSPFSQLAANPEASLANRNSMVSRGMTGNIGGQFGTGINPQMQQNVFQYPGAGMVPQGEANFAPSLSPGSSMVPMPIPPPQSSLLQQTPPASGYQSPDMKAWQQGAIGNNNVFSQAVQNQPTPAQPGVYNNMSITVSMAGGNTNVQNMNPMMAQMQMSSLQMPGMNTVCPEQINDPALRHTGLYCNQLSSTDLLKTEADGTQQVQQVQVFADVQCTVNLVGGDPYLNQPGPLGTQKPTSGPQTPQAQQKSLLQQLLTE
Sequence of 72 kDa type IV collagenase (P08253 whole entry): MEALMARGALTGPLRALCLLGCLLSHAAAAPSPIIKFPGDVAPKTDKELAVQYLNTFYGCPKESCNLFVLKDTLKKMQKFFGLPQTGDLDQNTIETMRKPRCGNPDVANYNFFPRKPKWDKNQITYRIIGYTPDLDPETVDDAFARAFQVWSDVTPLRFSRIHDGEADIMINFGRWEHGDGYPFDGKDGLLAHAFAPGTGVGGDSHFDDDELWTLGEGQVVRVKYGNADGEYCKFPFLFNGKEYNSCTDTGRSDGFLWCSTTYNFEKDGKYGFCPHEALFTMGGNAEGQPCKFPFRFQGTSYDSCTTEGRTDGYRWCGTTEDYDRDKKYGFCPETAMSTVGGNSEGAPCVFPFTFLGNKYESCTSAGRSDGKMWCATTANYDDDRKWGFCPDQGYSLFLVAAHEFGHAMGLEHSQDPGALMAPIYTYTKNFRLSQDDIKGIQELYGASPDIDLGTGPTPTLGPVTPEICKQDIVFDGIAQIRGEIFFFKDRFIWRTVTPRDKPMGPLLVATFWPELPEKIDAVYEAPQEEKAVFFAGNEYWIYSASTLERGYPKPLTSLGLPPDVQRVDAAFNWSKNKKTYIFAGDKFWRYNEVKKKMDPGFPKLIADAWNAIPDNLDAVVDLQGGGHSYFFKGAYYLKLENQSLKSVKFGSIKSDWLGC

## CC(C)Cc1ccc(C(C)C(=O)Nc2cccnc2)cc1 (configuration not stated)
Protein Wnt-3a
  IC50: 5.34 µM (active)
[1]
  EC50: > 53 µM (inactive)

## COCCNC(=O)C[C@@H]1CC[C@@H]2[C@H](COc3ccc(NC(=O)Nc4cccc(F)c4)cc3C(=O)N2C)O1
[2]
  AC50: 4.17 µM (active)

## CCC(CC)CN1C(N(C)C)=NC[C@@H]1CC(C)C
Protein Wnt-3a
  IC50: 5.72 µM (active)
[3]
  AC50: 0.717 µM (active)
[4]
  AC50: 1.84 µM (active)

## C[N+]1(CC(=O)OC2CCCCCCCCCCC2)CCCC1
Protein Wnt-3a
  IC50: 28 µM (inactive)
[5]
  EC50: 1.65 µM (active)
[6]
  EC50: > 150 µM (inconclusive)

## c1ccc(CN2CCc3[nH]c4ccccc4c3C2)cc1
SN12K1
  GI50: 15.2 µM (inactive)

## O=C(OCC(=O)c1ccc(Cl)cc1Cl)c1ccccn1
[7]
  IC50: 35.9 µM (not active)
Beta-galactosidase
  EC50: > 40 µM (inactive)

## CC1CC(N(C(=O)c2ccc(Cl)cc2)c2ccccc2)c2ccccc2N1C(=O)c1ccco1 (configuration not stated)
Vero
  CC50: 15.1 µM (active)

## Cc1ccc(NS(=O)(=O)c2cc([N+](=O)[O-])ccc2N/N=C/c2sc(N3CCOCC3)nc2-c2ccccc2)c(C)c1
[8]
  EC50: < 0.5 µM (active)
INS1
  AC50: 4.62 µM (active)
[7]
  IC50: > 40 µM (not active)
Beta-galactosidase
  EC50: > 40 µM (inactive)

## O=C(CSc1nc2ccccc2c(=O)n1-c1ccccc1)N1CCN(CCO)CC1
[2]
  AC50: 12.3 µM (active)

## CN(C)S(=O)(=O)c1ccc(C(=O)Nc2nc(-c3cc4ccccc4o3)cs2)cc1
HEK293 [9]
  IC50: > 20 µM (inactive)
HEK293 [10]
  EC50: > 20 µM (inactive)
HEK293 [11]
  IC50: 3.09 µM (active)
HEK293 [12]
  IC50: 2.85 µM (active)

## CCCCC(=O)Nc1sc2c(c1C(=O)OCC)CCC(C=O)=C2Cl
[8]
  EC50: > 32 µM (inactive)
Cytochrome P450 2C9
  AC50: 7.94 µM (inconclusive)
[13]
  EC50: 5.91 µM (active)
[14]
  CC50: > 40 µM (active)
[15]
  EC50: 5.83 µM (active)

## COc1ccc(NP(=O)(Oc2ccccc2OC)Oc2ccccc2OC)cc1
[16]
  EC50: > 79.4 µM (not active)
[17]
  EC50: > 79.4 µM (not active)
[18]
  EC50: > 79.4 µM (inactive)

## O=C(CSc1nc2c(c(=O)n1-c1ccccc1)SCC2)N1CCN(c2ccccc2)CC1
[2]
  AC50: 1.08 µM (active)

## CC(NC(=O)C1CCN(C(=O)c2cccs2)CC1)c1ccc(S(N)(=O)=O)cc1 (configuration not stated)
[19]
  IC50: 9.98 µM (active)
Prothrombin
  IC50: > 100 µM (inactive)
[20]
  IC50: > 100 µM (inactive)

## Cc1csc(NC(=O)CSc2nc3sc(C)c(C)c3c(=O)[nH]2)n1
[19]
  IC50: 24.3 µM (active)
Prothrombin
  IC50: 43.6 µM (active)
[20]
  IC50: > 100 µM (inactive)

## CO[C@H]1CN(C)C(=O)c2ccc(NC(C)=O)cc2OC[C@@H](C)N(C(=O)c2ccc(F)cc2)C[C@H]1C
[2]
  AC50: 11.5 µM (active)

## CCOc1ccc(CCNC(=O)CSc2cc(=O)n(C)c3ccccc23)cc1OCC
[16]
  EC50: > 79.4 µM (not active)
[17]
  EC50: > 79.4 µM (not active)
[18]
  EC50: > 79.4 µM (inactive)

## Cc1ccc(OCC(=O)OCC(=O)c2cccc([N+](=O)[O-])c2)cc1C
[7]
  IC50: > 40 µM (not active)
Beta-galactosidase
  EC50: > 40 µM (inactive)

## Cc1ccc(/N=C/c2c(C)[nH]n(-c3nc4ccccc4[nH]3)c2=O)cc1
[21]
  AC50: 5.84 µM (active)
[22]
  EC50: 2.83 µM (active)
INS1
  AC50: 1.42 µM (active)
BJ [23]
  EC50: > 133 µM (inactive)
BJ [24]
  EC50: 3.03 µM (active)
BJ [25]
  EC50: 2.84 µM (inconclusive)
BJ [26]
  EC50: 3.62 µM (inconclusive)

## COc1ccccc1C1C2=C(O)OCC2=Nc2cc3c(cc21)OCO3 (configuration not stated)
[22]
  EC50: 9.6 µM (inconclusive)
BJ [23]
  EC50: < 0.104 µM (active)
BJ [24]
  EC50: 15.2 µM (inconclusive)
BJ [25]
  EC50: 6.64 µM (inconclusive)
BJ [26]
  EC50: 9.65 µM (inconclusive)

## CCc1cc(=O)oc2cc(C)cc(O)c12
[16]
  EC50: 21.1 µM (not active)
[17]
  EC50: > 79.4 µM (not active)
[18]
  EC50: > 79.4 µM (inactive)

## COc1cccc(N2[C@@H](CC(C)=O)c3ccc(/C=C/C(C)=O)cc3S2(=O)=O)c1
Vero
  CC50: 17.9 µM (active)

## CCn1c(=O)cc(SCC(=O)N2CCN(Cc3ccc4c(c3)OCO4)CC2)c2ccccc21
[16]
  EC50: > 79.4 µM (not active)
[17]
  EC50: > 79.4 µM (not active)
[18]
  EC50: > 79.4 µM (inactive)
